Results reported in US10123993B2, “Cyclic ureas as inhibitors of rock” (BRISTOL-MYERS SQUIBB COMPANY, priority 2015, dated 2018).
Structures can show the parent of a compound that is named as a salt.

Molecular target: ROCK2 (Homo sapiens, UniProt O75116)
Assay: ROCK2 kinase inhibition assay (Caliper LABCHIP, FITC peptide substrate)
Assay type: biochemical
Settings: 5 μM ATP, 1.5 μM peptide substrate; value ranges
Procedure, shortened: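 Dose-response curves gave IC50 from inhibition of peptide phosphorylation, measured by LabChip separation after EDTA stop. Reactions used 1.5 μM FITC-labelled peptide, 5 μM ATP, 20 mM HEPES pH 7.5 with MgCl2, Brij-35, DTT, and under 2% DMSO.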

ROCK2, sequence (O75116 whole entry, species assumed): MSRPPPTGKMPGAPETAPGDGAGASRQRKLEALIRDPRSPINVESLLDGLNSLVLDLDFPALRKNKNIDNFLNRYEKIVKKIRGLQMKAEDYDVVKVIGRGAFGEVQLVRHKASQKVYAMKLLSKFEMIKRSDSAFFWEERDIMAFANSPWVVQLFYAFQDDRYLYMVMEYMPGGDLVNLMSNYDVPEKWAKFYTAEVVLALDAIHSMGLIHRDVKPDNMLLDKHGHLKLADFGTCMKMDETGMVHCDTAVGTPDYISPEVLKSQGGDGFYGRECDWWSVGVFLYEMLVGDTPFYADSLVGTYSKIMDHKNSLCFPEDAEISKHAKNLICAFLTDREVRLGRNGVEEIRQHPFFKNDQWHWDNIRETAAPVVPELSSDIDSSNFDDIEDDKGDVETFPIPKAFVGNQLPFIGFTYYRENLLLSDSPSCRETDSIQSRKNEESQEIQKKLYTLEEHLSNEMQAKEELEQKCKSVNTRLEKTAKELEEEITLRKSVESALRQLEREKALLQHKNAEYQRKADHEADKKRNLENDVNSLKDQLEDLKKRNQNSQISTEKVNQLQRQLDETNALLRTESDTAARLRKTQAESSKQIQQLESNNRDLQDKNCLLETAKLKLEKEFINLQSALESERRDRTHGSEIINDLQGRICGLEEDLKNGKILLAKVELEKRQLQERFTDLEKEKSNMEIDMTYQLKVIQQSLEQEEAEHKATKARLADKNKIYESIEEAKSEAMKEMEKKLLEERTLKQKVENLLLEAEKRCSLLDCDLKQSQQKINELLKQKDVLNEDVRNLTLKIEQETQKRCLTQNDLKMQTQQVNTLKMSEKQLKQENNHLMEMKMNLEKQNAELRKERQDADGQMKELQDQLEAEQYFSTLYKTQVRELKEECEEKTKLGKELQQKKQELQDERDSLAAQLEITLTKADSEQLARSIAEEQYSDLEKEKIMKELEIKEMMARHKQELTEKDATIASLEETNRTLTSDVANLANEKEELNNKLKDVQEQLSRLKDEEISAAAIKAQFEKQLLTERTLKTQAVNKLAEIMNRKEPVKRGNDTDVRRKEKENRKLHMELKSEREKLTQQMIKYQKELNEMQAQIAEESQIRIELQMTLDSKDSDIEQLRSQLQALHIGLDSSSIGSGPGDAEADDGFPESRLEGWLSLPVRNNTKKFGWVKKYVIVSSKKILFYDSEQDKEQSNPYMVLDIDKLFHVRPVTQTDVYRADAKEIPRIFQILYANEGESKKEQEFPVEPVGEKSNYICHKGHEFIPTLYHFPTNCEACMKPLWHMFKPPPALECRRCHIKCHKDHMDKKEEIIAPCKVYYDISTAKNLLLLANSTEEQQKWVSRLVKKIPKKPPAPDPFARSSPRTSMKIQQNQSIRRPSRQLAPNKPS

| Compound | IC50 |
| --- | --- |
| O=C1CN(CCc2ccccc2)C(=O)N1c1ccc(-c2cn[nH]c2)cc1 [Example 85, 3-(4-(1H-pyrazol-4-yl)phenyl)-1-phenethylimidazolidine-2,4-dione] | 200 to 2000 nM |
| COc1nc(-n2ccn(Cc3ccc(F)c(OCC4CC4)c3)c2=O)ccc1-c1cn[nH]c1 [Example 377, 1-(3-(cyclopropylmethoxy)-4-fluorobenzyl)-3-(6-methoxy-5-(1H-pyrazol-4-yl)pyridin-2-yl)-1H-imidazol-2(3H)-one] | 2.1 to 20 nM |
| COc1c(F)cccc1Cn1ccn(-c2ccc(-c3cn[nH]c3)cc2)c1=O [Example 405, 1-(4-(1H-pyrazol-4-yl)phenyl)-3-(3-fluoro-2-methoxybenzyl)-1H-imidazol-2(3H)-one] | 20.1 to 200 nM |
| COc1cc(C(C)N2CCN(c3ccc(-c4cn[nH]c4)c(OC)n3)C2=O)ccc1F (single isomer, unassigned) [Example 231, 1-(1-(4-fluoro-3-methoxyphenyl)ethyl)-3-(6-methoxy-5-(1H-pyrazol-4-yl)pyridin-2-yl)imidazolidin-2-one] | 20.1 to 200 nM |
| COc1nc(N2CCN(Cc3cccc(F)c3F)C2=O)ccc1-c1cn[nH]c1 [Example 223, 1-(2,3-difluorobenzyl)-3-(6-methoxy-5-(1H-pyrazol-4-yl)pyridin-2-yl)imidazolidin-2-one] | 2.1 to 20 nM |
| COC(=O)CC(c1cccc(OC)c1)N1CCN(c2ccc(-c3cn[nH]c3)c(OC)c2)C1=O (stereo not shown) [Example 20, Methyl 3-(3-(3-methoxy-4-(1H-pyrazol-4-yl)phenyl)-2-oxoimidazolidin-1-yl)-3-(3-methoxyphenyl)propanoate] | 200 to 2000 nM |
| COc1cccc(CN2C(=O)CN(c3ccc(-c4cn[nH]c4)cc3)C2=O)c1 [Example 112, 1-(4-(1H-pyrazol-4-yl)phenyl)-3-(3-methoxybenzyl) imidazolidine-2,4-dione] | < 2 nM |
| COc1nc(N2CCN(Cc3ccccc3F)C2=O)ccc1-c1cn[nH]c1 [Example 244, 1-(2-fluorobenzyl)-3-(6-methoxy-5-(1H-pyrazol-4-yl)pyridin-2-yl)imidazolidin-2-one] | 2.1 to 20 nM |
| O=C1N(Cc2cccc(F)c2)CCN1c1ccc(-c2ccncc2F)cc1 [Example 49, 1-(3-fluorobenzyl)-3-(4-(3-fluoropyridin-4-yl)phenyl)imidazolidin-2-one] | 20.1 to 200 nM |
| COc1cccc(C(C)N2CCN(c3cc(C)c(-c4cn[nH]c4)cn3)C2=O)c1 (single isomer, unassigned) [Example 470, 1-(1-(3-methoxyphenyl)ethyl)-3-(4-methyl-5-(1H-pyrazol-4-yl)pyridin-2-yl)imidazolidin-2-one] | 20.1 to 200 nM |
| COc1cccc(CN2C(=O)N(c3ccc(-c4cn[nH]c4)cc3)CC2C(C)(C)O)c1 (single isomer, unassigned; (+)) [Example 45, (+)-1-(4-(1H-Pyrazol-4-yl)phenyl)-4-(2-hydroxypropan-2-yl)-3-(3-methoxybenzyl)imidazolidin-2-one] | < 2 nM |
| O=C1N(CCc2ccccc2)CCN1c1ccc(-c2ccncc2F)cc1 [Example 53, 1-(4-(3-fluoropyridin-4-yl)phenyl)-3-phenethylimidazolidin-2-one] | 200 to 2000 nM |
| CCOc1cccc(C(C)n2ccn(-c3ccc(-c4cn[nH]c4)cn3)c2=O)c1 (single isomer, unassigned) [Example 371, 1-(5-(1H-pyrazol-4-yl)pyridin-2-yl)-3-(1-(3-ethoxyphenyl)ethyl)-1H-imidazol-2(3H)-one] | 20.1 to 200 nM |
| Cc1cc(N2CCN(Cc3cccc(OCC4CC4)c3)C2=O)ccc1-c1cn[nH]c1 [Example 284, 1-(3-(cyclopropylmethoxy)benzyl)-3-(3-methyl-4-(1H-pyrazol-4-yl)phenyl)imidazolidin-2-one] | 20.1 to 200 nM |
| CCc1cc(N2CCN(Cc3cccc(OC)c3)C2=O)ccc1-c1cn[nH]c1 [Example 23, 1-(3-Ethyl-4-(1H-pyrazol-4-yl)phenyl)-3-(3-methoxybenzyl)imidazolidin-2-one] | 2.1 to 20 nM |
| CCc1cc(-n2ccn(Cc3cccc(OCC4CC4)c3)c2=O)ccc1-c1cn[nH]c1 [Example 455, 1-(3-(cyclopropylmethoxy)benzyl)-3-(3-ethyl-4-(1H-pyrazol-4-yl)phenyl)-1H-imidazol-2(3H)-one] | 200 to 2000 nM |
| COc1cc(F)cc(CN2C(=O)N(c3ccc(-c4cn[nH]c4)cc3)C[C@H]2CO)c1 [Example 129, (S)-1-(4-(1H-pyrazol-4-yl)phenyl)-3-(3-fluoro-5-methoxy-benzyl)-4-(hydroxy-methyl)-imidazolidin-2-one] | < 2 nM |
| COc1cccc(CN2CCN(c3ccc(-c4ccncc4F)c(C)n3)C2=O)c1 [Example 205, 1-(3′-fluoro-2-methyl-[3,4′-bipyridin]-6-yl)-3-(3-methoxy-benzyl) imidazolidin-2-one] | 200 to 2000 nM |
| Cc1ccc(F)cc1Cn1ccn(-c2ccc(-c3cn[nH]c3)cc2)c1=O [Example 404, 1-(4-(1H-pyrazol-4-yl)phenyl)-3-(5-fluoro-2-methylbenzyl)-1H-imidazol-2(3H)-one] | 20.1 to 200 nM |
| O=C1CN(Cc2ccccc2)C(=O)N1c1ccc(-c2cn[nH]c2)cc1 [Example 87, 3-(4-(1H-pyrazol-4-yl)phenyl)-1-benzylimidazolidine-2,4-dione] | 200 to 2000 nM |
| CCC1CN(c2ccc(-c3cn[nH]c3)cc2)C(=O)N1Cc1cccc(OC)c1 (stereo not shown) [Example 175, 1-(4-(1H-pyrazol-4-yl)phenyl)-4-ethyl-3-(3-methoxy-benzyl) imidazolidin-2-one] | < 2 nM |
| COc1cc(N2CC(=O)N(Cc3ccccc3F)C2=O)ccc1-c1cn[nH]c1 [Example 99, 3-(2-fluorobenzyl)-1-(3-methoxy-4-(1H-pyrazol-4-yl)phenyl)imidazolidine-2,4-dione] | 20.1 to 200 nM |
| COc1cc(N2CCN(Cc3cccc(F)c3)C2=O)ccc1-c1ccncc1 [Example 59, 1-(3-fluorobenzyl)-3-(3-methoxy-4-(pyridin-4-yl)phenyl)imidazolidin-2-one, TFA] | 20.1 to 200 nM |
| CCc1cc(N2CCN(Cc3cccc(F)c3)C2=O)ccc1-c1cn[nH]c1 [Example 24, 1-(3-Ethyl-4-(1H-pyrazol-4-yl)phenyl)-3-(3-fluorobenzyl)imidazolidin-2-one] | 2.1 to 20 nM |
| COc1cc(F)cc(CN2C(=O)N(c3ccc(-c4cn[nH]c4)cn3)C[C@H]2CO)c1 [Example 312, (S)-1-(5-(1H-pyrazol-4-yl)pyridin-2-yl)-3-(3-fluoro-5-methoxybenzyl)-4-(hydroxymethyl)imidazolidin-2-one] | 2.1 to 20 nM |
| COc1cccc(CN2CC(CO)N(c3ccc(-c4cn[nH]c4)cc3)C2=O)c1 (single isomer, unassigned) [Example 127, 3-(4-(1H-Pyrazol-4-yl)phenyl)-4-(hydroxymethyl)-1-(3-methoxybenzyl)imidazolidin-2-one] | < 2 nM |
| COc1cc(Cn2ccn(-c3ccc(-c4cn[nH]c4)cc3)c2=O)ccc1F [Example 407, 1-(4-(1H-pyrazol-4-yl)phenyl)-3-(4-fluoro-3-methoxybenzyl)-1H-imidazol-2(3H)-one] | 20.1 to 200 nM |
| COc1cccc(C(C)n2ccn(-c3ccc(-c4ccnc(F)c4)cc3)c2=O)c1 (single isomer, unassigned) [Example 327, 1-(4-(2-fluoropyridin-4-yl)phenyl)-3-(1-(3-methoxyphenyl)ethyl)-1H-imidazol-2(3H)-one] | 200 to 2000 nM |
